Source: patent publication US12655116B2, “Substituted isophthalic acid diamides” (Bayer Aktiengesellschaft, priority 2020, dated 2026)

How the values were obtained:
[1] = system: ABUTH; assay: Pre-emergence herbicidal action against ABUTH; type: in vivo, Abutilon theophrasti; settings: Abutilon theophrasti, 504 h; for pest or weed control at 80 g/ha: scored visually after 3 weeks vs untreated controls (100% = plants have died, 0% = like control plants); for pest or weed control at 20 g/ha: dosage 20 g/ha, scored visually after 3 weeks vs untreated controls, 100% = plants have died, 0% = like control plants, read-out: Pre-emergence action against ABUTH (herbicidal activity in percent)
Outline: (§1)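 Pre-emergence soil-surface spray of formulated compound (WP or EC; 600 to 800 l/ha; 0.2% wetting agent) over seeds sown in sandy loam. After 3 weeks under greenhouse conditions, damage is estimated visually in percent against untreated plants.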

[2] = system: ALOMY; assay: Pre-emergence herbicidal action against ALOMY; type: in vivo, Alopecurus myosuroides; settings: Alopecurus myosuroides, 504 h, pre-emergence; for pest or weed control at 80 g/ha: scored visually after 3 weeks vs untreated controls (100% = plants have died, 0% = like control plants)
Outline: as §1

[3] = system: AMARE; assay: Pre-emergence herbicidal action against AMARE; type: in vivo, Amaranthus retroflexus; settings: Amaranthus retroflexus, 504 h, scored visually after 3 weeks vs untreated controls, 100% = plants have died, 0% = like control plants
Outline: as §1

[4] = system: AVEFA; assay: Pre-emergence herbicidal action against AVEFA; type: in vivo, Avena fatua; settings: Avena fatua, 504 h; 80 g/ha, pre-emergence
Outline: as §1

[5] = system: ECHCG; assay: Pre-emergence herbicidal action against ECHCG; type: in vivo, Echinochloa crus-galli; settings: Echinochloa crus-galli, 504 h, 80 g/ha
Outline: as §1

[6] = system: LOLRI; assay: Pre-emergence herbicidal action against LOLRI; type: in vivo, Lolium rigidum; settings: Lolium rigidum, 504 h
Outline: as §1

[7] = system: MATIN; assay: Pre-emergence herbicidal action against MATIN; type: in vivo, Matricaria inodora; settings: Tripleurospermum inodorum, 504 h; for pest or weed control at 20 g/ha: dosage 20 g/ha; for pest or weed control at 80 g/ha: dosage 80 g/ha
Outline: as §1

[8] = system: PHBPU; assay: Pre-emergence herbicidal action against PHBPU; type: in vivo, Pharbitis purpurea; settings: Ipomoea purpurea, 504 h, dosage 80 g/ha
Outline: as §1

[9] = system: POLCO; assay: Pre-emergence herbicidal action against POLCO; type: in vivo, Polygonum convolvulus; settings: Fallopia convolvulus, 504 h, dosage 80 g/ha
Outline: as §1

[10] = system: SETVI; assay: Pre-emergence herbicidal action against SETVI; type: in vivo, Setaria viridis; settings: Setaria viridis, 504 h; for pest or weed control at 20 g/ha: dosage 20 g/ha; for pest or weed control at 80 g/ha: dosage 80 g/ha
Outline: as §1

[11] = system: STEME; assay: Pre-emergence herbicidal action against STEME; type: in vivo, Stellaria media; settings: Stellaria media, 504 h; for pest or weed control at 20 g/ha: dosage 20 g/ha; for pest or weed control at 80 g/ha: dosage 80 g/ha
Outline: as §1

[12] = system: VERPE; assay: Pre-emergence herbicidal action against VERPE; type: in vivo, Veronica persica; settings: Veronica persica, 504 h, dosage 80 g/ha
Outline: as §1

[13] = system: VIOTR; assay: Pre-emergence herbicidal action against VIOTR; type: in vivo, Viola tricolor; settings: Viola tricolor, 504 h; for pest or weed control at 20 g/ha: dosage 20 g/ha; for pest or weed control at 80 g/ha: dosage 80 g/ha
Outline: as §1

[14] = system: DIGSA; assay: Pre-emergence herbicidal action against DIGSA; type: in vivo, Digitaria sanguinalis; settings: Digitaria sanguinalis, 504 h; for pest or weed control at 20 g/ha: dosage 20 g/ha; for pest or weed control at 80 g/ha: dosage 80 g/ha
Outline: as §1

[15] = system: ABUTH; assay: Post-emergence herbicidal action against ABUTH; type: in vivo, Abutilon theophrasti; settings: Abutilon theophrasti, 504 h, visual assessment about 3 weeks after treatment vs untreated controls; for pest or weed control at 20 g/ha: dosage 20 g/ha
Outline: (§2)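 Spray, one-leaf stage: WP or EC compound in water, 600–800 l/ha, 0.2% wetting agent. Plants held about 3 weeks in the greenhouse, then visually rated in percent of kill compared with untreated controls.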

[16] = system: ALOMY; assay: Post-emergence herbicidal action against ALOMY; type: in vivo, Alopecurus myosuroides; settings: Alopecurus myosuroides, 504 h, dosage 20 g/ha, visual assessment about 3 weeks after treatment vs untreated controls
Outline: as §2

[17] = system: AMARE; assay: Post-emergence herbicidal action against AMARE; type: in vivo, Amaranthus retroflexus; settings: Amaranthus retroflexus, 504 h, 20 g/ha, visual assessment about 3 weeks after treatment, 100% = plants have died, 0% = like control plants
Outline: as §2

[18] = system: AVEFA; assay: Post-emergence herbicidal action against AVEFA; type: in vivo, Avena fatua; settings: Avena fatua, 504 h, visual assessment about 3 weeks after treatment, 100% = plants have died, 0% = like control plants
Outline: as §2

[19] = system: ECHCG; assay: Post-emergence herbicidal action against ECHCG; type: in vivo, Echinochloa crus-galli; settings: Echinochloa crus-galli, 504 h; for pest or weed control at 20 g/ha: dosage 20 g/ha
Outline: as §2

[20] = system: HORMU; assay: Post-emergence herbicidal action against HORMU; type: in vivo, Hordeum murinum; settings: Hordeum murinum, 504 h, dosage 20 g/ha
Outline: as §2

[21] = system: LOLRI; assay: Post-emergence herbicidal action against LOLRI; type: in vivo, Lolium rigidum; settings: Lolium rigidum, 504 h, dosage 20 g/ha
Outline: as §2

[22] = system: MATIN; assay: Post-emergence herbicidal action against MATIN; type: in vivo, Matricaria inodora; settings: Tripleurospermum inodorum, 504 h, dosage 20 g/ha
Outline: as §2

[23] = system: PHBPU; assay: Post-emergence herbicidal action against PHBPU; type: in vivo, Pharbitis purpurea; settings: Ipomoea purpurea, 504 h
Outline: as §2

[24] = system: SETVI; assay: Post-emergence herbicidal action against SETVI; type: in vivo, Setaria viridis; settings: Setaria viridis, 504 h; for pest or weed control at 5 g/ha: dosage 5 g/ha; for pest or weed control at 20 g/ha: dosage 20 g/ha
Outline: as §2

[25] = system: STEME; assay: Post-emergence herbicidal action against STEME; type: in vivo, Stellaria media; settings: Stellaria media, 504 h; for pest or weed control at 5 g/ha: dosage 5 g/ha
Outline: as §2

[26] = system: VERPE; assay: Post-emergence herbicidal action against VERPE; type: in vivo, Veronica persica; settings: Veronica persica, 504 h, 20 g/ha
Outline: as §2

[27] = system: VIOTR; assay: Post-emergence herbicidal action against VIOTR; type: in vivo, Viola tricolor; settings: Viola tricolor, 504 h
Outline: as §2

[28] = system: DIGSA; assay: Post-emergence herbicidal action against DIGSA; type: in vivo, Digitaria sanguinalis; settings: Digitaria sanguinalis, 504 h
Outline: as §2

[29] = system: HORMU; assay: Pre-emergence herbicidal action against HORMU; type: in vivo, Hordeum murinum; settings: Hordeum murinum, 504 h; 80 g/ha, pre-emergence
Outline: as §1

SMILES: CCNC(=O)c1c(C(F)(F)F)ccc(C(=O)Nc2nnnn2C)c1SC [Example 1-82]
- pest or weed control at 80 g/ha [1]: 100%
- pest or weed control at 20 g/ha [1]: 100%
- pest or weed control at 80 g/ha [2]: 80%
- pest or weed control at 20 g/ha [3]: 90%
- pest or weed control at 80 g/ha [3]: 100%
- pest or weed control at 80 g/ha [4]: 90%
- pest or weed control at 80 g/ha [5]: 100%
- pest or weed control at 80 g/ha [6]: 80%
- pest or weed control at 20 g/ha [7]: 100%
- pest or weed control at 80 g/ha [7]: 100%
- pest or weed control at 80 g/ha [8]: 80%
- pest or weed control at 80 g/ha [9]: 90%
- pest or weed control at 20 g/ha [10]: 80%
- pest or weed control at 80 g/ha [10]: 100%
- pest or weed control at 20 g/ha [11]: 100%
- pest or weed control at 80 g/ha [11]: 100%
- pest or weed control at 80 g/ha [12]: 90%
- pest or weed control at 20 g/ha [13]: 100%
- pest or weed control at 80 g/ha [13]: 100%
- pest or weed control at 20 g/ha [14]: 100%
- pest or weed control at 80 g/ha [14]: 100%
- pest or weed control at 5 g/ha ([15]; dosage 5 g/ha): 90%
- pest or weed control at 20 g/ha [15]: 90%
- pest or weed control at 20 g/ha [16]: 90%
- pest or weed control at 20 g/ha [17]: 90%
- pest or weed control at 20 g/ha [18]: 90%
- pest or weed control at 5 g/ha ([19]; dosage 5 g/ha): 80%
- pest or weed control at 20 g/ha [19]: 90%
- pest or weed control at 20 g/ha [20]: 90%
- pest or weed control at 20 g/ha [21]: 80%
- pest or weed control at 20 g/ha [22]: 80%
- pest or weed control at 5 g/ha ([23]; dosage 5 g/ha): 80%
- pest or weed control at 20 g/ha ([23]; dosage 20 g/ha): 90%
- pest or weed control at 5 g/ha [24]: 80%
- pest or weed control at 20 g/ha [24]: 90%
- pest or weed control at 20 g/ha [25]: 90%
- pest or weed control at 5 g/ha [25]: 90%
- pest or weed control at 20 g/ha [26]: 80%
- pest or weed control at 20 g/ha [27]: 90%
- pest or weed control at 5 g/ha [28]: 90%
- pest or weed control at 20 g/ha [28]: 90%

SMILES: Cn1nnnc1NC(=O)c1ccc(Cl)c(C(=O)NC2CC2)c1Cl [Example 1-173]
- pest or weed control at 80 g/ha [1]: 100%
- pest or weed control at 20 g/ha [1]: 90%
- pest or weed control at 80 g/ha [2]: 100%
- pest or weed control at 20 g/ha ([2]; 20 g/ha, scored visually after 3 weeks, 100% = plants have died, 0% = like control plants): 80%
- pest or weed control at 20 g/ha [3]: 100%
- pest or weed control at 80 g/ha [3]: 100%
- pest or weed control at 80 g/ha [4]: 100%
- pest or weed control at 80 g/ha [5]: 100%
- pest or weed control at 80 g/ha [29]: 90%
- pest or weed control at 20 g/ha ([6]; 20 g/ha): 80%
- pest or weed control at 80 g/ha [6]: 90%
- pest or weed control at 20 g/ha [7]: 80%
- pest or weed control at 80 g/ha [7]: 100%
- pest or weed control at 80 g/ha [8]: 90%
- pest or weed control at 80 g/ha [9]: 80%
- pest or weed control at 20 g/ha [10]: 90%
- pest or weed control at 80 g/ha [10]: 100%
- pest or weed control at 20 g/ha [11]: 80%
- pest or weed control at 80 g/ha [11]: 100%
- pest or weed control at 20 g/ha [13]: 80%
- pest or weed control at 80 g/ha [13]: 90%
- pest or weed control at 20 g/ha [14]: 100%
- pest or weed control at 80 g/ha [14]: 100%
- pest or weed control at 20 g/ha [15]: 90%
- pest or weed control at 20 g/ha [16]: 80%
- pest or weed control at 20 g/ha [17]: 100%
- pest or weed control at 5 g/ha ([18]; 5 g/ha): 90%
- pest or weed control at 20 g/ha [18]: 100%
- pest or weed control at 20 g/ha [19]: 80%
- pest or weed control at 20 g/ha [20]: 90%
- pest or weed control at 20 g/ha [21]: 90%
- pest or weed control at 5 g/ha [24]: 90%
- pest or weed control at 20 g/ha [24]: 90%
- pest or weed control at 20 g/ha [25]: 100%
- pest or weed control at 5 g/ha [25]: 80%
- pest or weed control at 5 g/ha ([27]; 5 g/ha): 90%
- pest or weed control at 20 g/ha [27]: 90%
- pest or weed control at 5 g/ha [28]: 90%
- pest or weed control at 20 g/ha [28]: 100%
